# Measured values reported in patent publication US7416893B2, “Methods for diagnosing drug-resistant cancer cells or for identifying chemotherapeutic agents by measuring anomalous intracellular ion and/or second messenger dynamics” (Atto Bioscience, priority 2002, dated 2008).
# Marks after values point to notes of the source that are not given here.
# Legend:
# MCF-7/ADR cells = assay: Single-cell fura-2 [Ca2+]i imaging, MCF-7/ADR drug-resistant cells; assay type: cell-based, human; conditions: for Fold [Ca2+]i increase evoked by agonist: mean ± S.E.M.
# Procedure: (§6) Cells, grown on 25 mm round, 1 mm-thick glass coverslips were loaded with cell-permeable fura-2 AM (5 uM; Molecular Probes, Eugene, Oreg.) at 37° C. in growth medium for 30-60 min. […] Cells were then thoroughly washed with buffer H/H (Ham's F-10 nutrient mixture supplemented with 20 mM Na-HEPES, pH 7.4) and let sit for 10 min at room temperature to allow complete fura-2 AM de-esterification. […] For each coverslip, 10-99 cells were simultaneously imaged in a given microscopic field and [Ca^2+]1 was recorded from each individual cell in resting and stimulated conditions. Single Ca^2+ profiles were averaged to yield [Ca^2+]1 population means (±S.E.M.) that were plotted versus time.
# (§7) Cells were grown as monolayers on glass supports and labeled with the cell-permeable fluorescent dye, Fura-2 (Molecular Probes, Inc.).
# (§8) Basal [Ca^2+]1 levels and responses to ATP (50-100 uM), UTP (50-100 uM), BK (10 uM), THR (5 uM), or TG (1 uM) were studied in single cells. […] Ca^2+ responses were compared between pairs of DS and DR clones tested in parallel (MCF-7/ADR cells were compared to their parental wt, DS line obtained from Georgetown University; MCF-7/Ad-Vp cells were compared to the NIH wt, DS line; other DR clones were compared mainly with wt, DS MCF-7 cells from ATCC; C6 clones resistant to doxorubicin were compared to their wild type parental line.
# (§9) Cells were labeled with Fura-2 and imaged. After 30-60 sec., the agonists were applied and calcium responses were recorded in single cells. The fold increase in [Ca^2+]1 were calculated and the average values from all the experiments were used in this table.
# (§10) Cells were loaded with Fura-2 and imaged in the absence or presence of EGTA, which is a calcium chelator. Cells were challenged with ATP and Ca responses were recorded. The magnitude and decay t1/2 of the responses were calculated and the respective mean of all the experiments was compared.
# (§11) DR and DS cells were then exposed to the modulators for 2 or 24 hr and challenged with ATP.
# MCF-7/VP cells = assay: Single-cell fura-2 [Ca2+]i imaging, MCF-7/VP drug-resistant cells; assay type: cell-based, human; conditions: mean ± S.E.M.
# Procedure: as §6, §7, §8, §9
# MCF-7 wt cells = assay: Single-cell fura-2 [Ca2+]i imaging, MCF-7 wt drug-sensitive cells; assay type: cell-based, human; conditions: for Fold [Ca2+]i increase evoked by agonist: mean ± S.E.M.
# Description: More specifically, human breast cancer cell (“bc”) lines were obtained from the following sources: wild type (“wt”), estrogen receptor-positive MCF-7 cells were obtained from three different sources: American Type Culture Collection (ATCC, Manassas, Va.), the Lombardi Cancer Center, Georgetown University (Washington, D.C.) and the National Cancer Institute, NIH (Bethesda, Md.) and will be referred to as “wt”, DS MCF-7 throughout the paper. […] Five DR, MCF-7-derived clonal cell lines were used in this study.
# as §6, §7, §8, §9, §10
# MCF-7/Melph cells = assay: Single-cell fura-2 [Ca2+]i imaging, MCF-7/Melph drug-resistant cells; assay type: cell-based, human; conditions: mean ± S.E.M.
# MCF-7/C4 cells = assay: Single-cell fura-2 [Ca2+]i imaging, MCF-7/C4 drug-resistant cells; assay type: cell-based, human; conditions: for Fold [Ca2+]i increase evoked by agonist: mean ± S.E.M.
# Description: (§1) More specifically, human breast cancer cell (“bc”) lines were obtained from the following sources: wild type (“wt”), estrogen receptor-positive MCF-7 cells were obtained from three different sources: American Type Culture Collection (ATCC, Manassas, Va.), the Lombardi Cancer Center, Georgetown University (Washington, D.C.) and the National Cancer Institute, NIH (Bethesda, Md.) and will be referred to as “wt”, DS MCF-7 throughout the paper. Wild type, estrogen receptor-negative MDA-MB-231 cells were obtained from the Lombardi Cancer Center, Georgetown University. Five DR, MCF-7-derived clonal cell lines were used in this study. MCF-7/ADR (selected by exposure and resistance to adriamycin, a DNA intercalating agent and DNA topoisomerase II inhibitor; (Vickers, P. J. et al. Mol. Endocrinol. 2:886-892, 1988) were from the Lombardi Cancer Center, Georgetown University; MCF-7/C4 (selected, after mutagenesis, for resistance to camptothecin, a DNA topoisomerase I inhibitor) were obtained from Dr. Y. Pommier (NCI, NIH, Bethesda, Md.) (Fujimori, A. et al. Mol. Pharmacol. 50:1472-1478, 1996); MCF-7/VP cells (selected by exposure and resistance to VP-16 etoposide, a DNA topoisomerase II inhibitor; Schneider, E. et al. Cancer Res. 54:152-158, 1994) were obtained from Dr. E. Schneider, Wadsworth Center, New York State Dept. of Health, Albany, N.Y.; MCF-7/Melph cells (selected by exposure and resistance to melphalan, a DNA alkylating agent; Moscow, J A et al. Br. J. Cancer 68:732-737, 1993) were obtained from Dr. J. Moscow, University of Kentucky, Lexington, Ky.
# (§2) For data mentioned below, [Ca^2+]1 was measured by single-cell fura-2 excitation ratio imaging as previously described (DeBernardi, M. A. et al. Mol Pharmacol 43:451-58, 1993). Cells, grown on 25 mm round, 1 mm-thick glass coverslips were loaded with cell-permeable fura-2 AM (5 uM; Molecular Probes, Eugene, Oreg.) at 37° C. in growth medium for 30-60 min. MCF-7/ADR, MCF-7/Ad-Vp, and C6-B and E cells were difficult to load with fura-2 AM, likely reflecting a high degree of dye extrusion (Homolya, L. et al. J Biol. Chem. 268:21493-96, 1993). […] Cells were then thoroughly washed with buffer H/H (Ham's F-10 nutrient mixture supplemented with 20 mM Na-HEPES, pH 7.4) and let sit for 10 min at room temperature to allow complete fura-2 AM de-esterification. Cells were imaged at room temperature in H/H buffer using an Attofluor RatioVision Digital Fluorescence Microscopy System (Atto Bioscience, Rockville, Md.) equipped with a Zeiss Axiovert 135 microscope and a F-Fluar 40×, 1.3 na, oil-immersion objective. Fura-2 was excited at 334 and 380 nm with the emission monitored at >510 nm; the 334/380 nm excitation ratio increases as a function of the [Ca^2+]1. Calibration was done in vitro with 10 uM fura-2 pentapotassium salt in the presence of 1 mM CaCl2 or 1 mM EGTA and the 334/380 nm excitation ratio was converted to [Ca^2+]1 nM values (Grynkiewicz et al J Biol Chem 260:3440-3450, 1985). For each coverslip, 10-99 cells were simultaneously imaged in a given microscopic field and [Ca^2+]1 was recorded from each individual cell in resting and stimulated conditions. Single Ca^2+ profiles were averaged to yield [Ca^2+]1 population means (±S.E.M.) that were plotted versus time. […]
# (§3) Single cell Ca^2+ dynamics were monitored by single cell fluorescence digital imaging according to the method previously described by DeBernardi, M. A. et al. Mol Phamacol 43: 451-458 (1993). […]
# MDA-MB-231 cells = assay: Single-cell fura-2 [Ca2+]i imaging, MDA-MB-231 wt cells; assay type: cell-based, human; conditions: for Fold [Ca2+]i increase evoked by agonist: mean ± S.E.M.
# Description: as §1, §2, §3
# MCF-7/AdVp cells = assay: Single-cell fura-2 [Ca2+]i imaging, MCF-7/Ad-Vp drug-resistant cells; assay type: cell-based, human; conditions: mean ± S.E.M.
# Procedure: as §6, §7, §8, §9
# [1] = tested on: human breast cancer cells (DS and DR); assay: Single-cell fura-2 [Ca2+]i imaging, DS and DR human breast cancer cells (statements across lines); assay type: cell-based; conditions: for Effect on decay kinetics of ATP-evoked response: 2 or 24 hr, VER/CSA in wt or MCF-7/ADR, GEN/PRO in wt or MCF-7/VP; for Effect of acute pre-treatment on ATP-induced [Ca2+]i responses: 10 min pre-treatment, VER 25 uM, CSA 10 uM, GEN 100 uM, PRO 2 mM
# Procedure: as §6, §7, §8
# Human breast cancer cells loaded with Fura-2, were exposed to various agonists and [Ca^2+]1 responses from single cells were recorded.
# as §11
# [2] = tested on: C6 rat glioblastoma clone A; assay: Single-cell fura-2 [Ca2+]i imaging, C6 clone A; assay type: cell-based
# Procedure: (§4) C6 rat glioblastoma cell lines: Wild type cells and progressively doxorubicin-resistant clones were obtained from Dr. J. Robert, Institute Bergonie, Bordeaux, France. Clones were selected by exposure to increasing doses of doxorubicin: Clone A, 0.001 μg/ml; Clone B, 0.1 μg/ml, and Clone E, 0.5 μg/ml.
# (§5) For data mentioned below, [Ca^2+]1 was measured by single-cell fura-2 excitation ratio imaging as previously described (DeBernardi, M. A. et al. Mol Pharmacol 43:451-58, 1993). Cells, grown on 25 mm round, 1 mm-thick glass coverslips were loaded with cell-permeable fura-2 AM (5 uM; Molecular Probes, Eugene, Oreg.) at 37° C. in growth medium for 30-60 min. […] Cells were imaged at room temperature in H/H buffer using an Attofluor RatioVision Digital Fluorescence Microscopy System (Atto Bioscience, Rockville, Md.) equipped with a Zeiss Axiovert 135 microscope and a F-Fluar 40×, 1.3 na, oil-immersion objective. Fura-2 was excited at 334 and 380 nm with the emission monitored at >510 nm; the 334/380 nm excitation ratio increases as a function of the [Ca^2+]1. […] For each coverslip, 10-99 cells were simultaneously imaged in a given microscopic field and [Ca^2+]1 was recorded from each individual cell in resting and stimulated conditions. […]
# [3] = tested on: C6 rat glioblastoma clone B; assay: Single-cell fura-2 [Ca2+]i imaging, C6 clone B; assay type: cell-based
# Procedure: as §4, §5
# [4] = tested on: C6 rat glioblastoma clone E; assay: Single-cell fura-2 [Ca2+]i imaging, C6 clone E; assay type: cell-based
# Procedure: as §4, §5
# C6 DR clones A, B and E = assay: Single-cell fura-2 [Ca2+]i imaging, all C6 DR clones; assay type: cell-based, rat; conditions: all the clones
# Procedure: as §4, §5
# [5] = tested on: C6 rat astrocytoma clone A; conditions: cited from earlier work
# [6] = tested on: C6 rat astrocytoma clone E; conditions: cited from earlier work
# [7] = tested on: C6 rat astrocytoma clone B; conditions: cited from earlier work
compound,measurement,setting,value
Nc1ncnc2c1ncn2[C@@H]1O[C@H](COP(=O)(O)OP(=O)(O)OP(=O)(O)O)[C@@H](O)[C@H]1O [ATP],"ATP-evoked [Ca2+]i, fold increase",MCF-7/ADR cells; EGTA-containing Buffer,2.4 ± 0.3 fold
same,"ATP-evoked [Ca2+]i, fold increase",MCF-7/ADR cells; Standard Buffer,3.7 ± 0.7 fold
same,Fold [Ca2+]i increase evoked by agonist,MCF-7/ADR cells,2.9 ± 0.7 (n = 25) fold
same,Fold [Ca2+]i increase evoked by agonist,MCF-7/VP cells,4.4 ± 1.2 (n = 11) fold
same,"ATP-evoked [Ca2+]i, fold increase",MCF-7 wt cells; EGTA-containing Buffer,6.2 ± 2.1 fold
same,"ATP-evoked [Ca2+]i, fold increase",MCF-7 wt cells; Standard Buffer,8.1 ± 2.4^b fold
same,Fold [Ca2+]i increase evoked by agonist,MCF-7 wt cells,7.9 ± 1.8^a (n = 67) fold
same,Fold [Ca2+]i increase evoked by agonist,MCF-7/Melph cells,16.0 ± 6.1 fold
same,"ATP-evoked [Ca2+]i, fold increase",MCF-7/C4 cells; EGTA-containing Buffer,4.9 ± 0.4 fold
same,"ATP-evoked [Ca2+]i, fold increase",MCF-7/C4 cells; Standard Buffer,5.8 ± 0.9 fold
same,Fold [Ca2+]i increase evoked by agonist,MCF-7/C4 cells,5.9 ± 0.8 (n = 12) fold
same,"ATP-evoked [Ca2+]i, fold increase",MDA-MB-231 cells; EGTA-containing Buffer,26.0 ± 8.1 fold
same,"ATP-evoked [Ca2+]i, fold increase",MDA-MB-231 cells; Standard Buffer,16.5 ± 4.8 fold
same,Fold [Ca2+]i increase evoked by agonist,MDA-MB-231 cells,16.5 ± 4.8 fold
same,Fold [Ca2+]i increase evoked by agonist,MCF-7/AdVp cells,4.5 ± 1.2 (n = 12) fold
same,ATP-increased [Ca2+]i decay kinetics faster in absence than in presence of extracellular Ca2+,"[1]; MCF-7/ADR and MCF-7/C4 cells, EGTA vs standard buffer",≥ 60%
same,[Ca2+]i increase when applied following TG,"[1]; MCF-7/C4, MCF-7/VP and MCF-7/Ad-Vp cells",modest and transient
same,ATP-increased [Ca2+]i decay kinetics faster in Ca2+-free conditions,"[1]; MCF-7 and MDA-MB-231 wt cells, EGTA vs standard buffer",≤ 40%
same,Ca2+ response evoked when applied following TG,[1]; MCF-7 wt and MCF-7/ADR cells,failed to evoke
"O=c1c(-c2ccc(O)cc2)coc2cc(O)cc(O)c12 [GEN, genistein]",Effect on decay kinetics of ATP-evoked response,[1],not affected
same,Effect of acute pre-treatment on ATP-induced [Ca2+]i responses,[1],did not affect
"CCCN(CCC)S(=O)(=O)c1ccc(C(=O)O)cc1 [PRO, probenecid]",Effect on decay kinetics of ATP-evoked response,[1],not affected
same,Effect of acute pre-treatment on ATP-induced [Ca2+]i responses,[1],did not affect
"C/C=C(/C)C(=O)O[C@H]1C(C)=C2[C@H]([C@@H]1OC(=O)CCCCCCC)[C@@](C)(OC(C)=O)C[C@H](OC(=O)CCC)[C@@]1(O)[C@H]2OC(=O)[C@@]1(C)O [TG, thapsigargin]",Fold [Ca2+]i increase evoked by agonist,MCF-7/ADR cells,2.7 ± 0.7 fold
same,Induced [Ca2+]i increase compared with C6 parental cells,[2],greater
same,Fold [Ca2+]i increase evoked by agonist,MCF-7/VP cells,1.5 ± 0.1 (n = 6) fold
same,Fold [Ca2+]i increase evoked by agonist,MCF-7 wt cells,2.8 ± 0.5 fold
same,Induced [Ca2+]i increase compared with C6 parental cells,[3],much reduced response
same,Fold [Ca2+]i increase evoked by agonist,MCF-7/C4 cells,3.4 ± 0.8 (n = 7) fold
same,Induced [Ca2+]i increase compared with C6 parental cells,[4],much reduced response
same,"[Ca2+]i decay kinetics after stimulation, compared with wild type cells","C6 DR clones A, B and E",comparable or faster
same,Fold [Ca2+]i increase evoked by agonist,MDA-MB-231 cells,3.5 ± 0.9 (n = 3) fold
same,Fold [Ca2+]i increase evoked by agonist,MCF-7/AdVp cells,2.4 ± 0.7 fold
same,[Ca2+]i increase when applied after ATP,"[1]; all DR clones and MDA-MB-231 wt, except MCF-7 wt and MCF-7/VP",able to increase
same,Fold increase in [Ca2+]i,"[1]; all clones, applied as the first drug",~3 fold
O=c1ccn([C@@H]2O[C@H](COP(=O)(O)OP(=O)(O)OP(=O)(O)O)[C@@H](O)[C@H]2O)c(=O)[nH]1 [UTP],Fold [Ca2+]i increase evoked by agonist,MCF-7/ADR cells,2.2 ± 0.3 fold
same,Fold [Ca2+]i increase evoked by agonist,MCF-7/VP cells,5.2 ± 1.9 fold
same,Fold [Ca2+]i increase evoked by agonist,MCF-7 wt cells,6.0 ± 1.3 fold
same,Fold [Ca2+]i increase evoked by agonist,MCF-7/Melph cells,3.7 ± 0.3 fold
same,Fold [Ca2+]i increase evoked by agonist,MCF-7/AdVp cells,3.7 ± 0.8 fold
COc1cccc2c1C(=O)c1c(O)c3c(c(O)c1C2=O)C[C@@](O)(C(=O)CO)C[C@@H]3O[C@H]1C[C@H](N)[C@H](O)[C@H](C)O1 [adriamycin],"Fold resistance (dose to kill 50% of DR cells vs wt, DS cells)",[5],7 fold
same,"Fold resistance (dose to kill 50% of DR cells vs wt, DS cells)",[6],400 fold
same,"Fold resistance (dose to kill 50% of DR cells vs wt, DS cells)",[7],33 fold
α-thrombin,Fold [Ca2+]i increase evoked by agonist,MCF-7/ADR cells,2.8 ± 1.1 (n = 3) fold
same,Fold [Ca2+]i increase evoked by agonist,MCF-7 wt cells,2.8 ± 0.1 (n = 3) fold
same,Fold [Ca2+]i increase evoked by agonist,MCF-7/C4 cells,3.3 ± 0.3 (n = 3) fold
same,Fold [Ca2+]i increase evoked by agonist,MDA-MB-231 cells,13.5 ± 5.1 fold
